Here are results for 28 compounds from patent US10407409B2, “6-(5-hydroxy-1H-pyrazol-1-yl)nicotinamide inhibitors of PHD” (Takeda Pharmaceutical Company Limited, priority 2013, dated 2019).

The structures appear in SMILES notation.

Assay [1] has as its target PHD2 enzyme (residues 181-417) (Homo sapiens (Human), UniProt Q9GZT9). Description: Inhibition of PHD enzyme (LC/MS peptide hydroxylation assay). It counts as biochemical. The conditions noted are these: PHD2 (residues 181-417) 5 nM, 60 min pre-incubation; -log(IC50), IC50 molar. The method, boiled down:
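PHD2 (5 nM final) preincubated with inhibitor 60 min at RT in 50 mM HEPES, 50 mM KCl, 0.5 mM TCEP, 2 uM FeCl2, 0.1 mg/ml BSA, pH 7.3. Reaction started with biotin-peptide (1 uM), 2-oxoglutarate (2 uM), ascorbate (1 mM), quenched at 60 min; hydroxylated product by LC/MS, reported as pIC50.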

Assay [2] concerns HIF1a protein in H9c2 rat cardiomyocytes. The experiment in a line: Cell-based HIF-alpha stabilization assay (inhibition of PHD in cells). The conditions noted are these: 24 hrs compound incubation, HIF1a protein by ELISA; for EC50: Rattus norvegicus, H9c2, 24 h, read-out: Inhibition of PHD in cells (pEC50) (converted). Put shortly:
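Rat H9c2 cardiomyocytes, cultured 24 h, were treated 24 h with an 11-point serial dilution of compound. HIF1a in whole-cell lysates was quantified by ELISA as % of the maximal desferrioxamine response. EC50 came from curve fitting; EC50pos is the concentration reaching 50% of the desferrioxamine maximum.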

PHD2 enzyme (residues 181-417), sequence (Q9GZT9 181-417): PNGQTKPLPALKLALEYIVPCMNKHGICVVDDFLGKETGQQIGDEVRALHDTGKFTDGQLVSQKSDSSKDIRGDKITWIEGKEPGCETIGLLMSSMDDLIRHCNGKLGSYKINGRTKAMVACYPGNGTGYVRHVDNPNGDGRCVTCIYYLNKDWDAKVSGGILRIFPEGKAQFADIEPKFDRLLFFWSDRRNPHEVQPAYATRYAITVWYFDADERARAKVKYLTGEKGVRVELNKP

For the compound `CNC(=O)c1cnc(-n2ncc(-c3ccc(C#N)cc3)c2O)cc1C` [Example 273, 6-(4-(4-cyanophenyl)-5-hydroxy-1H-pyrazol-1-yl)-N,4-dimethylnicotinamide], the “PHD Inhibition (pIC50)” value in assay [1] is recorded as 7.06. Besides, the EC50 in assay [2] is 9330 nM.

On to `CC1(C)CC1NC(=O)c1ccc(-n2ncc(-c3ccc(C#N)cc3)c2O)nc1` (centres unmarked) [Example 54, 6-(4-(4-cyanophenyl)-5-hydroxy-1H-pyrazol-1-yl)-N-(2,2-dimethylcyclopropyl)nicotinamide], for which the “PHD Inhibition (pIC50)” value in assay [1] is recorded as 7.22. Also, the EC50 in assay [2] was 331 nM.

As for `COCC(C)NC(=O)c1ccc(-n2ncc(-c3ccc(C#N)cc3C)c2O)nc1` (centres unmarked) [Example 136, 6-(4-(4-cyano-2-methylphenyl)-5-hydroxy-1H-pyrazol-1-yl)-N-(1-methoxypropan-2-yl)nicotinamide], the “PHD Inhibition (pIC50)” value in assay [1] stood at 7.13. Further, in assay [2], the EC50 is 112 nM.

In the case of `N#Cc1ccc(-c2cnn(-c3ccc(C(=O)N4CCC[C@H]4CN4CCCC4)cn3)c2O)cc1` [Example 352, (S)-4-(5-hydroxy-1-(5-(2-(pyrrolidin-1-ylmethyl)pyrrolidine-1-carbonyl)pyridin-2-yl)-1H-pyrazol-4-yl)benzonitrile], the “PHD Inhibition (pIC50)” value in assay [1] was determined as 7.47. Moreover, the EC50 in assay [2] is 3470 nM.

On to `Cc1cc(C#N)ccc1-c1cnn(-c2ccc(C(=O)NCCC3CCCO3)cn2)c1O` (centres unmarked) [Example 245, 6-(4-(4-cyano-2-methylphenyl)-5-hydroxy-1H-pyrazol-1-yl)-N-(2-(tetrahydrofuran-2-yl)ethyl)nicotinamide], for which the “PHD Inhibition (pIC50)” value in assay [1] was 8.4. For the same compound, the EC50 in assay [2] is 240 nM.

On to `CO[C@H]1CC[C@H](NC(=O)c2ccc(-n3ncc(-c4ccc(C#N)cc4C)c3O)nc2)CC1` [Example 68, 6-(4-(4-cyano-2-methylphenyl)-5-hydroxy-1H-pyrazol-1-yl)-N-((1r,4r)-4-methoxycyclohexyl)nicotinamide], for which the “PHD Inhibition (pIC50)” value in assay [1] is 7.44. In assay [2], the EC50 is 50.1 nM.

Regarding `COc1cc(-c2cnn(-c3ccc(C(=O)NCC(C)C)cn3)c2O)ccn1` [Example 6, 6-(5-hydroxy-4-(2-methoxypyridin-4-yl)-1H-pyrazol-1-yl)-N-isobutylnicotinamide], the “PHD Inhibition (pIC50)” value in assay [1] was 7.02. The EC50 in assay [2] was 955 nM.

Regarding `Cc1cc(C#N)ccc1-c1cnn(-c2ccc(C(=O)NCCCN3CCCCC3)cn2)c1O` [Example 99, 6-(4-(4-cyano-2-methylphenyl)-5-hydroxy-1H-pyrazol-1-yl)-N-(3-(piperidin-1-yl)propyl)nicotinamide], the “PHD Inhibition (pIC50)” value in assay [1] came out at 7.9. Further, in assay [2], the EC50 was 53.7 nM.

In the case of `CCCNC(=O)c1ccc(-n2ncc(-c3ccc(C#N)cc3)c2O)nc1` [Example 267, 6-(4-(4-cyanophenyl)-5-hydroxy-1H-pyrazol-1-yl)-N-propylnicotinamide], the “PHD Inhibition (pIC50)” value in assay [1] is recorded as 7.36. Also, the EC50 in assay [2] was 708 nM.

`CCC(C)NC(=O)c1ccc(-n2ncc(-c3ccc(C#N)cc3)c2O)nc1` (centres unmarked) [Example 80, N-(sec-butyl)-6-(4-(4-cyanophenyl)-5-hydroxy-1H-pyrazol-1-yl)nicotinamide]: the “PHD Inhibition (pIC50)” value in assay [1] is 7.23. Further, the EC50 in assay [2] is 1070 nM.

`CCN1CCN(C(=O)c2ccc(-n3ncc(-c4ccc(C#N)c(F)c4C)c3O)nc2)CC1` [Example 305, 4-(1-(5-(4-ethylpiperazine-1-carbonyl)pyridin-2-yl)-5-hydroxy-1H-pyrazol-4-yl)-2-fluoro-3-methylbenzonitrile]: the “PHD Inhibition (pIC50)” value in assay [1] was 8.27. In addition, in assay [2], the EC50 is 1320 nM.

As for `COc1cc(-c2cnn(-c3ccc(C(=O)NC4(C5CCOCC5)CC4)cn3)c2O)ccn1` [Example 233, 6-(5-hydroxy-4-(2-methoxypyridin-4-yl)-1H-pyrazol-1-yl)-N-(1-(tetrahydro-2H-pyran-4-yl)cyclopropyl)nicotinamide], the “PHD Inhibition (pIC50)” value in assay [1] was 6.7. Moreover, the EC50 in assay [2] is 589 nM.

`COCCCCNC(=O)c1ccc(-n2ncc(-c3ccc(C#N)cc3F)c2O)nc1` [Example 285, 6-(4-(4-cyano-2-fluorophenyl)-5-hydroxy-1H-pyrazol-1-yl)-N-(4-methoxybutyl)nicotinamide]: in assay [1], the “PHD Inhibition (pIC50)” value was 8.48. The EC50 in assay [2] is 933 nM.

For the compound `Cc1cc(C#N)ccc1-c1cnn(-c2ccc(C(=O)N3CCN(C)[C@@H](C)C3)cn2)c1O` [Example 372, (S)-4-(1-(5-(3,4-dimethylpiperazine-1-carbonyl)pyridin-2-yl)-5-hydroxy-1H-pyrazol-4-yl)-3-methylbenzonitrile], in assay [1], the “PHD Inhibition (pIC50)” value is on record as 8.26. Besides, the EC50 in assay [2] is 832 nM.

On to `CN(C(=O)c1ccc(-n2ncc(-c3ccc(C#N)cc3)c2O)nc1)C1CC1` [Example 239, 6-(4-(4-cyanophenyl)-5-hydroxy-1H-pyrazol-1-yl)-N-cyclopropyl-N-methylnicotinamide], for which, in assay [1], the “PHD Inhibition (pIC50)” value amounted to 7.12. Also, the EC50 in assay [2] is 1700 nM.

In the case of `Cc1cc(C#N)ccc1-c1cnn(-c2ccc(C(=O)NCCC3CCCCO3)cn2)c1O` (centres unmarked) [Example 206, 6-(4-(4-cyano-2-methylphenyl)-5-hydroxy-1H-pyrazol-1-yl)-N-(2-(tetrahydro-2H-pyran-2-yl)ethyl)nicotinamide], the “PHD Inhibition (pIC50)” value in assay [1] is recorded as 8.2. The EC50 in assay [2] is 110 nM.

Turning to `CC[C@H](CC#N)NC(=O)c1ccc(-n2ncc(-c3ccc(C#N)cc3)c2O)nc1` [Example 74, (R)—N-(1-cyanobutan-2-yl)-6-(4-(4-cyanophenyl)-5-hydroxy-1H-pyrazol-1-yl)nicotinamide], in assay [1], the “PHD Inhibition (pIC50)” value came to 7.05. Moreover, the EC50 in assay [2] is 3160 nM.

Take `Cc1cc(C#N)ccc1-c1cnn(-c2ccc(C(=O)NCC3CCOCC3)cn2)c1O` [Example 222, 6-(4-(4-cyano-2-methylphenyl)-5-hydroxy-1H-pyrazol-1-yl)-N-((tetrahydro-2H-pyran-4-yl)methyl)nicotinamide]: the “PHD Inhibition (pIC50)” value in assay [1] was 7.25. In assay [2], the EC50 was 100 nM.

With `COc1cc(-c2cnn(-c3ccc(C(=O)NCCO)cn3)c2O)ccn1` [Example 25, 6-(5-hydroxy-4-(2-methoxypyridin-4-yl)-1H-pyrazol-1-yl)-N-(2-hydroxyethyl)nicotinamide], the “PHD Inhibition (pIC50)” value in assay [1] was 7.1. Further, the EC50 in assay [2] is 4470 nM.

On to `Cc1cc(C#N)c(F)cc1-c1cnn(-c2ccc(C(=O)N3CC(N(C)C)C3)cn2)c1O` [Example 394, 4-(1-(5-(3-(dimethylamino)azetidine-1-carbonyl)pyridin-2-yl)-5-hydroxy-1H-pyrazol-4-yl)-2-fluoro-5-methylbenzonitrile], for which the “PHD Inhibition (pIC50)” value in assay [1] worked out at 7.88. In assay [2], the EC50 is 2820 nM.

On to `Cc1cc(C#N)ccc1-c1cnn(-c2ccc(C(=O)N[C@H]3CC[C@H](O)CC3)cn2)c1O` [Example 139, 6-(4-(4-cyano-2-methylphenyl)-5-hydroxy-1H-pyrazol-1-yl)-N-((1r,4r)-4-hydroxycyclohexyl)nicotinamide], for which the “PHD Inhibition (pIC50)” value in assay [1] was 7.36. The “Inhibition of PHD in cells (pEC50)” value in assay [2] stood at 7.09.

With `Cc1cc(C#N)ccc1-c1cnn(-c2ccc(C(=O)NC3CCN(C4CC4)CC3)cn2)c1O` [Example 140, 6-(4-(4-cyano-2-methylphenyl)-5-hydroxy-1H-pyrazol-1-yl)-N-(1-cyclopropylpiperidin-4-yl)nicotinamide], the “PHD Inhibition (pIC50)” value in assay [1] is 8.1. In assay [2], the EC50 is 120 nM.

Turning to `Cc1cc(C#N)ccc1-c1cnn(-c2ccc(C(=O)NCC3CCN(C)C3)cn2)c1O` (centres unmarked) [Example 96, 6-(4-(4-cyano-2-methylphenyl)-5-hydroxy-1H-pyrazol-1-yl)-N-((1-methylpyrrolidin-3-yl)methyl)nicotinamide], the “PHD Inhibition (pIC50)” value in assay [1] is 8. For the same compound, the EC50 in assay [2] was 56.2 nM.

For the compound `Cc1cc(C#N)ccc1-c1cnn(-c2ccc(C(=O)N3CCCN(C)CC3)cn2)c1O` [Example 287, 4-(5-hydroxy-1-(5-(4-methyl-1,4-diazepane-1-carbonyl)pyridin-2-yl)-1H-pyrazol-4-yl)-3-methylbenzonitrile], the “PHD Inhibition (pIC50)” value in assay [1] came to 8.10. Also, the EC50 in assay [2] is 3550 nM.

In the case of `COCCCNC(=O)c1ccc(-n2ncc(-c3ccc(CC#N)cc3)c2O)nc1` [Example 217, 6-(4-(4-(cyanomethyl)phenyl)-5-hydroxy-1H-pyrazol-1-yl)-N-(3-methoxypropyl)nicotinamide], in assay [1], the “PHD Inhibition (pIC50)” value is listed as 8.1. In addition, the EC50 in assay [2] was 1230 nM.

With `Cc1cc(C#N)ccc1-c1cnn(-c2ccc(C(=O)N3CC4(COC4)C3)cn2)c1O` [Example 185, 4-(1-(5-(2-oxa-6-azaspiro[3.3]heptane-6-carbonyl)pyridin-2-yl)-5-hydroxy-1H-pyrazol-4-yl)-3-methylbenzonitrile], the “PHD Inhibition (pIC50)” value in assay [1] is listed as 8. The EC50 in assay [2] is 562 nM.

On to `C[C@@H](NC(=O)c1ccc(-n2ncc(-c3ccc(C#N)cc3)c2O)nc1)C1CCOCC1` [Example 172, (R)-6-(4-(4-cyanophenyl)-5-hydroxy-1H-pyrazol-1-yl)-N-(1-(tetrahydro-2H-pyran-4-yl)ethyl)nicotinamide], for which the “PHD Inhibition (pIC50)” value in assay [1] is recorded as 7.33. Moreover, the EC50 in assay [2] is 1260 nM.

As for `COCCCNC(=O)c1ccc(-n2ncc(-c3ccnc(OC)c3)c2O)nc1` [Example 203, 6-(5-hydroxy-4-(2-methoxypyridin-4-yl)-1H-pyrazol-1-yl)-N-(3-methoxypropyl)nicotinamide], the “PHD Inhibition (pIC50)” value in assay [1] was 7.1. Further, the EC50 in assay [2] was 603 nM.
